# Laboratory results reported in patent publication US20010041669A1, “Prevention of diabetes” (priority 1995, published 2001).
# Legend:
# [1] = test system: receptor (receptor binding assay) or mouse free fat cell (lipogenesis); test: Biological activity relative to human insulin, receptor binding or lipogenesis assays; conditions: for Activity relative to human insulin (= 1.00): either receptor binding or lipogenesis assays
# Excerpt: Metab. Res. 6, 12-16 and Vølund (1978) Biometrics 34, 357-365 or in the receptor binding assay as described by Andersen et al. (1992) J. Biol. Chem. 267, 13681-13686.
# Methods of analysing the biological activity (hypoglycaemic effect) of insulins are well know, and include receptor binding assays using whole cells or soluble receptors, the mouse free fat cell assay, euglycaemic pig clamp assay, intravenous rabbit blood glucose assay and the subcutaneous mouse blood glucose assay (Vølund et al. (1991) Diabetic Medicine, 8, 839-847, Brange et al. (1990) Diabetes Care 13, 923-954, Drejer (1992) Diabetes/Metabolism Reviews 8, 259-286)
# NOD mice [2] = test: Effect on blood glucose level of daily subcutaneous injection in NOD mice (Example 1); type: in vivo, mouse; conditions: for effect on blood glucose level: day 7, 6 hours after injection, female NOD mice
# Experimental: Furthermore, 4 of the 5 animals receiving insulin (3.8 mg/kg) died of hypoglycaemia after 3-5 days of treatment and animal number five had to be sacrificed on day seven due to symptoms of hypoglycaemia.
# NOD mice [3] = test: Prophylactic effect of daily subcutaneous administration on diabetes and survival in NOD mice (Example 2); type: in vivo; conditions: for protection against development of diabetes compared with human insulin: daily s.c., equimolar doses (0.77 mg/kg), NOD mice; for diabetes incidence versus buffer treated animals at 40 weeks of age: s.c. daily 0.77 mg/kg from 5 to 32 weeks of age, after termination of treatment; for diabetes incidence versus buffer treated animals at 31 weeks of age: s.c. daily 0.77 mg/kg from 5 weeks of age, after 26 weeks of treatment, female NOD mice; for mice died of hypoglycaemia during the treatment period: 0.77 mg/kg
# Experimental: Female NOD (non-obese diabetic) mice, 4 weeks old, were obtained from Bommice (Bomholtgård, Ry, Denmark). At the beginning of the experiment there were a total of 30 animals in each of the three groups mentioned below. […] The treatment was continued until the mice were 32 weeks old, at which age treatment was stopped and the mice observed until they were 40 weeks old. Beginning when the mice were 10 weeks old, the urine was tested weekly for the presence of glucose using glucosuria test tape (Tes-Tape, Lilly, Indianapolis, Ind.). If an animal tested positive in the glucose urine test, a blood sample was taken and blood glucose measured using a glucose analyzer. If the blood glucose was 15 mmol/l or higher, the animal was classified as diabetic and then sacrificed.
# NOD mice [4] = test: Daily subcutaneous administration in the initial stage of diabetes in NOD mice (Example 3); type: in vivo; conditions: for frequency of diabetes compared to buffer treated animals: s.c. daily 0.77 mg/kg from 10 to 37 weeks of age, effect from 15 weeks until end, female NOD mice; for cases of diabetes after termination of the treatment: treatment stopped at 37 weeks, observed until 39 weeks
# Experimental: Female NOD (non-obese diabetic) mice, 4-5 weeks old, were obtained from the Jackson Laboratory (Bar Harbour, Me.). At the beginning of the experiment, there were a total of 20 animals in each of the three groups mentioned below. […] The treatment was continued until the mice were 37 weeks old, at which age treatment was stopped. The mice were observed until they were 39 weeks old. Beginning when the mice were 10 weeks old, the urine was tested weekly for the presence of glucose using glucosuria test tape (Tes-Tape, Lilly, Indianapolis, Ind.). If an animal tested positive in the glucose urine test, a blood sample was taken and blood glucose measured using a glucose analyzer. If the blood glucose was 15 mmol/l or higher, the animal was classified as diabetic and sacrificed.
# C57/BL mice = test: Effect of oral administration on blood glucose level in mice (Example 4); type: in vivo, mouse; conditions: oral gavage 1 mg, 2 times a week, after 4 weeks of treatment; non-fasted; 15 minutes
# Experimental: After 4 weeks of treatment, the effect on the blood glucose level in non-fasted animals was analyzed. An initial blood sample was taken in order to determine the control blood glucose level. 15-30 minutes later the animals were fed by gavage and the blood glucose level was determined after further 15, 60 and 180 minutes. […] Insulin is a well known growth factor and has a direct mitogenic effect. The consequence of having a high concentration of intact insulin in the gut lumen directly exposing gut epithelium to its effect is not known but could potentially be serious.
substance,measurement,setting,value
"Ser^A6,Ser^A11,des(A8-A10) human insulin",Activity relative to human insulin (= 1.00),[1],0.0001
D-Cys^A7 human insulin,Activity relative to human insulin (= 1.00),[1],0.002
des (B23-B30) human insulin,Activity relative to human insulin (= 1.00),[1],0.001
des (B1-B5) human insulin,Activity relative to human insulin (= 1.00),[1],0.05
Asn^B12 human insulin,Activity relative to human insulin (= 1.00),[1],0.002
D-Cys^A6 human insulin,Activity relative to human insulin (= 1.00),[1],0.0023
"D-Cys^A6,D-Cys^A11 human insulin",Activity relative to human insulin (= 1.00),[1],0.00027
Leu^A19 human insulin,Activity relative to human insulin (= 1.00),[1],0.001
Asp^B25 human insulin,hormonally active (relative to human insulin),[1],less than 0.1%
same,Activity relative to human insulin (= 1.00),[1],0.001
same,mice died or displayed hypoglycaemia,"NOD mice [2]; s.c. daily 17.3, 5.8 or 0.6 mg/kg, 26 days observation period",None
same,effect on blood glucose level,"NOD mice [2]; s.c. daily 17.3, 5.8 or 0.6 mg/kg",do not affect the blood glucose levels
same,cases of diabetes after termination of treatment,"NOD mice [3]; 0.77 mg/kg s.c. daily until 32 weeks, observed until 40 weeks",1 case
same,protection against development of diabetes compared with human insulin,"NOD mice [3]; listed as X38, 0.77 mg/kg","prevented the development of diabetes to the same, or higher degree as insulin did"
same,protection against development of diabetes compared with human insulin,"NOD mice [3]; listed as human insulin with a single amino acid substitution in position B25, 0.77 mg/kg",protects as well against diabetes as equimolar doses of human insulin does
same,diabetes incidence versus buffer treated animals at 40 weeks of age,NOD mice [3],still highly significantly lower
same,diabetes incidence versus buffer treated animals at 31 weeks of age,NOD mice [3],highly significantly (p<0.01) lower
same,treated animals died,"NOD mice [3]; s.c. daily 0.77 mg/kg, 30 animals per group, not statistically different from buffer group",one
same,frequency of diabetes compared to buffer treated animals,NOD mice [4],"reduced the frequency of diabetes to the same, or higher degree as insulin did"
same,treated animals died,"NOD mice [4]; s.c. daily 0.77 mg/kg, 20 animals per group",none
same,cases of diabetes after termination of the treatment,NOD mice [4],no cases of diabetes occurred
D-Ala^B12 human insulin,Activity relative to human insulin (= 1.00),[1],0.007
des (B25-B30) human insulin,Activity relative to human insulin (= 1.00),[1],0.06
D-allo Ile^A2 human insulin,Activity relative to human insulin (= 1.00),[1],0.002
D-Cys^A11 human insulin,Activity relative to human insulin (= 1.00),[1],0.007
Nva^A3 human insulin,Activity relative to human insulin (= 1.00),[1],0.014
Glu^B12 human insulin,Activity relative to human insulin (= 1.00),[1],0.0004
Leu^A3 human insulin,Activity relative to human insulin (= 1.00),[1],0.0018
"Gly^A2,Gly^A3 human insulin",Activity relative to human insulin (= 1.00),[1],0.00014
desA1 human insulin,Activity relative to human insulin (= 1.00),[1],0.006
desA21 human insulin,Activity relative to human insulin (= 1.00),[1],0.04
Ala^A2 human insulin,Activity relative to human insulin (= 1.00),[1],0.006
des (A1-A3) human insulin,Activity relative to human insulin (= 1.00),[1],0.0011
des (B24-B30) human insulin,Activity relative to human insulin (= 1.00),[1],0.002
des (A1-A2) human insulin,Activity relative to human insulin (= 1.00),[1],0.0014
Nle^A2 human insulin,Activity relative to human insulin (= 1.00),[1],0.01
des (B1-B6) human insulin,Activity relative to human insulin (= 1.00),[1],0.0004
Gly^A2 human insulin,Activity relative to human insulin (= 1.00),[1],0.01
Nle^A3 human insulin,Activity relative to human insulin (= 1.00),[1],0.0038
Thr^A2 human insulin,Activity relative to human insulin (= 1.00),[1],0.001
human insulin [reference compound],effect on blood glucose level,NOD mice [2]; s.c. daily 0.6 mg/kg,marked hypoglycaemic effect
same,time of death from hypoglycaemia,"NOD mice [2]; s.c. daily 3.8 mg/kg, days of treatment",3 to 5 days
same,animals died of hypoglycaemia,"NOD mice [2]; s.c. daily 3.8 mg/kg, group of 5 NOD mice",4 of the 5
same,diabetes incidence versus buffer treated animals at 40 weeks of age,NOD mice [3],still significantly (p<0.05) lower
same,diabetes incidence versus buffer treated animals at 31 weeks of age,NOD mice [3],significantly reduced the incidence of diabetes
same,mice died of hypoglycaemia during the treatment period,"NOD mice [3]; s.c. daily 0.77 mg/kg, 30 animals per group",approx. 50%
same,mice died of hypoglycaemia during the treatment period,"NOD mice [3]; s.c. daily 0.77 mg/kg, 30 animals per group, listed as insulin",50%
same,frequency of diabetes compared to buffer treated animals,NOD mice [4],reduced the frequency of diabetes
same,cases of diabetes after termination of the treatment,NOD mice [4],no cases of diabetes occurred
same,blood glucose level immediately after feeding,C57/BL mice,profound immediate reduction in the blood glucose level
Phe^B12 human insulin,Activity relative to human insulin (= 1.00),[1],0.002
"Abu^A2,Abu^A3 human insulin",Activity relative to human insulin (= 1.00),[1],0.0041
Pro^A2 human insulin,Activity relative to human insulin (= 1.00),[1],0.01
"Val^A2,Ile^A3 human insulin",Activity relative to human insulin (= 1.00),[1],0.021
Gly^B6 human insulin,Activity relative to human insulin (= 1.00),[1],0.0005
